Values quoted from earlier work as cited in patent US20040034042A1, “Preservative composition” (priority 2002, published 2004).

Key:
[1] = test system: Rhizopus, Penicillium and like fungi; settings: literature statement; effects called insufficient

Cn1c(=O)c2c(ncn2C)n(C)c1=O [caffeine]
antibacterial activity to Rhizopus, Penicillium and like fungi [1]: exhibits antibacterial activity | production of aflatoxin by A. parasiticus (A. parasiticus): inhibits the production of aflatoxin
